This note sets out measurements from patent US11498904B2, “Substituted biaryl compounds as indoleamine 2,3-dioxygenase (IDO) inhibitors” (MERCK SHARP & DOHME CORP., priority 2017, dated 2022).

For orientation: IC50 means the concentration at which inhibition is half-maximal.

Where a name gives a salt, the structure may show the parent alone.

The assay deals with IDO1 (Homo sapiens, UniProt P14902). Briefly: IDO1 Human Whole Blood Assay. Type of assay: cell-based. To be noted: LPS and IFNγ 100 ng/mL, 18 h, kynurenine by LC/MS/MS, read-out: Human Whole Blood Potency, IC50. The procedure: IDO1 Human Whole Blood Assay
IDO1, sequence (P14902 whole entry): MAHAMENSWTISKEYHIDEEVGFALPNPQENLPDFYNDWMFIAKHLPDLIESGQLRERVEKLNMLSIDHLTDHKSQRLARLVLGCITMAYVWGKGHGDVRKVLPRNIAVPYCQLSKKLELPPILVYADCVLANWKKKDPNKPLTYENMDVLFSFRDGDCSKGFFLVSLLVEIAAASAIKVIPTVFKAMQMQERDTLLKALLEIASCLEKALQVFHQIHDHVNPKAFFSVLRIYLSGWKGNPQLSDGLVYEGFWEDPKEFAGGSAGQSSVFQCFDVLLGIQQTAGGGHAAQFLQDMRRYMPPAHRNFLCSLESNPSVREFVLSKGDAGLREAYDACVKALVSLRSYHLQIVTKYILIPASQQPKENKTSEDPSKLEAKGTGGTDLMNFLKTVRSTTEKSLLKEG
Compounds to be tested were serially diluted in ten 3-fold steps in DMSO starting from 10 mM. […] LPS and IFNγ was prepared in RPMI to a 10× of final conc. (1000 ng/mL), final concentration is 100 ng/mL.
240 μL of blood was transferred to each of the wells of a v-bottom 96 well plate. 30 μL of compound was transferred from intermediate dilution plate, and incubated for 15 min. 30 μL from stimulants was then transferred to blood and mixed thoroughly. Plate was covered with breathable membrane and incubated at 37° C. for overnight (18 h).
On day 2 isotope labeled standard of kynurenine and tryptophan was made in water at 10× concentration and 30 μL was added to the blood at 3 μM final concentration. The assay plates were centrifuged at 300×G for 10 min with no brake to separate plasma from red blood cells. 60 μL of plasma samples was removed without disturbing red blood cells. Plasma was diluted with RPMI in 1:1 ratio and proteins were precipitated out with two volume of
Acetonitrile. The plates were centrifuged at 4000×G for 60 min. 20 μL of supernatant was carefully transferred to a 384 well plate contain 40 μL of 0.1% formic acid in water and analyzed by LC/MS/MS.
LC/MS/MS analyses were performed using Thermo Fisher's LX4-TSQ Quantum Ultra system. This system consists of four Agilent binary high-performance liquid chromatography (HPLC) pumps and a TSQ Quantum Ultra triple quadrupole MS/MS instrument. For each sample, 5 μL were injected onto an Atlantis T3 column (2.1 mm×150 mm, 3 μm particle size) from Waters. The mobile phase gradient pumped at 0.8 mL/min was used to elute the analytes from the column at 25° C. […] Mobile phase A consisted of 0.1% formic acid in water. Mobile phase B consisted of 0.1% of formic acid in acetonitrile. Data was acquired in positive mode using a HESI interface. The operational parameters for the TSQ Quantum Ultra instrument were a spray voltage of 4000 V, capillary temperature of 380° C., vaporizer temperature 400° C., shealth gas 60 arbitrary units, Aux gas 20 arbitrary units, tube lens 85 and collision gas 1.2 mTorr. SRM chromatograms of kynurenine (Q1: 209.2>Q3:94.0) and internal standard (Q1: 215.3>Q3:98.2) were collected for 90 sec. The peak area was integrated by Xcalibur Quan software. The ratios between the kynurenine generated in the reaction and 2D6-Kynurenine spiked-in internal standard were used to generate percentage inhibition and IC50 values. Compounds were titrated and IC50's were calculated by 4 parameter sigmoidal curve fitting formula.
The biological activity data of selective compounds using the IDO1 human whole blood assay described above are summarized in the table below.
As to `N#Cc1ccc(C(=O)NC2(c3ccc(-c4cnc(C(F)(F)F)cc4CO)cc3)CCC2)cc1` [Example 35, 4-cyano-N-(1-(4-(4-(hydroxymethyl)-6-(trifluoromethyl)pyridin-3-yl)phenyl)cyclobutyl)benzamide], the IC50 turned out to be 1070 nM. Take `C[C@@H](O)c1cc(C(F)(F)F)ncc1-c1ccc(C2(NC(=O)c3ccc(F)cc3)CC2)cc1` [Example 51, (R)-4-fluoro-N-(1-(4-(4-(1-hydroxyethyl)-6-(trifluoromethyl)pyridin-3-yl)phenyl)cyclopropyl)benzamide, 2,2,2-trifluoroacetate salt]: the IC50 is 233 nM. Take `COc1cc(C)c(-c2ccc(C3(NC(=O)c4ccc(C#N)cc4)CCC3)cc2)c(C)n1` [Example 36, 4-cyano-N-(1-(4-(6-methoxy-2,4-dimethylpyridin-3-yl)phenyl)cyclobutyl)benzamide]: the IC50 is 308 nM.

Take `O=C(NC1(c2ccc(-c3cnc(C(F)(F)F)cc3CO)cc2)CC1)c1ccc(Cl)cc1` [Example 46, 4-chloro-N-(1-(4-(4-(hydroxymethyl)-6-(trifluoromethyl)pyridin-3-yl)phenyl)cyclopropyl)benzamide]: the IC50 is 703 nM. The figure for `CC1CC1(NC(=O)c1ccc(F)cc1)c1ccc(-c2cnc(C(F)(F)F)cc2C(C)(C)O)nc1` (single isomer, unassigned) [Example 59] is 171 nM; for `CC1CC1(NC(=O)c1ccc(F)cc1)c1ccc(-c2cnc(C(F)(F)F)cc2C(C)(C)O)nc1` (single isomer, unassigned) [Example 58] it is 284 nM; for `Cc1cc(C2CC2)ncc1-c1ccc(C2(NC(=O)c3ccc(C#N)cc3)CCC2)cc1F` [Example 7, 4-Cyano-N-(1-(4-(6-cyclopropyl-4-methylpyridin-3-yl)-3-fluorophenyl)cyclobutyl)benzamide] it is 398 nM.

For the molecule `O=C(NC1(c2ccc(-c3cnc(C(F)(F)F)cc3CO)cc2)CCC1)c1ccc(F)cc1` [Example 53], the IC50 is 1000 nM. `C[C@H](O)c1cc(C(F)(F)F)ncc1-c1ccc(C2(NC(=O)c3ccc(F)cc3)CC2)cc1` [Example 50, (S)-4-fluoro-N-(1-(4-(4-(1-hydroxyethyl)-6-(trifluoromethyl)pyridin-3-yl)phenyl)cyclopropyl)benzamide]: the IC50 came to 186 nM.

`CC(C)(O)c1cc(C(F)(F)F)ncc1-c1ccc(C2(NC(=O)c3ccc(F)cc3)CCC2)cc1` [Example 52, 4-fluoro-N-(1-(4-(4-(2-hydroxypropan-2-yl)-6-(trifluoromethyl)pyridin-3-yl)phenyl)cyclobutyl)benzamide]: the half-inhibitory concentration (IC50) was 152 nM. In the case of `CC(C)Oc1cc(CO)c(-c2ccc(C3(NC(=O)c4ccc(F)cc4)CC3)cc2)cn1` [Example 49, 4-fluoro-N-(1-(4-(4-(hydroxymethyl)-6-isopropoxypyridin-3-yl)phenyl)cyclopropyl)benzamide], the 50% inhibitory concentration (IC50) stood at 579 nM. The figure for `CC(C)(O)c1cc(OC2CC2)ncc1-c1ccc(C2(NC(=O)c3ccc(F)cc3)CC2)cc1` [Example 47, N-(1-(4-(6-cyclopropoxy-4-(2-hydroxypropan-2-yl)pyridin-3-yl)phenyl)cyclopropyl)-4-fluorobenzamide] is 127 nM; for `CC1CC1(NC(=O)c1ccc(F)cc1)c1ccc(-c2cnc(C(F)(F)F)cc2C(C)(C)O)nc1` (single isomer, unassigned) [Example 60] it is 210 nM. Regarding `CC1CC1(NC(=O)c1ccc(F)cc1)c1ccc(-c2cnc(C(F)(F)F)cc2C(C)(C)O)nc1` (single isomer, unassigned) [Example 56, 4-fluoro-N-(1-(4′-(2-hydroxypropan-2-yl)-6′-(trifluoromethyl)-[2,3′-bipyridin]-5-yl)-2-methylcyclopropyl)benzamide], the IC50 was 361 nM. As to `Cc1cc(C2CC2)ncc1-c1ccc(C2(NC(=O)c3ccc(C#N)cc3)CCC2)cc1` [Example 12, 4-cyano-N-(1-(4-(6-cyclopropyl-4-methylpyridin-3-yl)phenyl)cyclobutyl)benzamide], the IC50 was found to be 246 nM. The figure for `CC(C)(O)c1cc(OC2CC2)ncc1-c1ccc(C2(NC(=O)c3ccc(F)cc3)CCC2)cc1` [Example 54, N-(1-(4-(6-cyclopropoxy-4-(2-hydroxypropan-2-yl)pyridin-3-yl)phenyl)cyclobutyl)-4-fluorobenzamide] is 336 nM. The figure for `O=C(NC1(c2ccc(-c3cnc(OC4CC4)cc3CO)cc2)CC1)c1ccc(F)cc1` [Example 48, N-(1-(4-(6-cyclopropoxy-4-(hydroxymethyl)pyridin-3-yl)phenyl)cyclopropyl)-4-fluorobenzamide] is 922 nM. The figure for `N#Cc1ccc(C(=O)NC2(c3ccc(-c4ccc(C5CC5)nc4CO)cc3)CCC2)cc1` [Example 25, 4-cyano-N-(1-(4-(6-cyclopropyl-2-(hydroxymethyl)pyridin-3-yl)phenyl)cyclobutyl)benzamide] is 587 nM. On to `Cc1cc(C2CC2)ncc1-c1ccc(C2(NC(=O)c3ccc(C#N)cc3)CCC2)nc1` [Example 42, 4-Cyano-N-(1-(6′-cyclopropyl-4′-methyl-[3,3′-bipyridin]-6-yl)cyclobutyl)benzamide], for which the IC50 was determined as 392 nM.
